Test results taken from US20170216244A1, “METHODS FOR TREATING DIABETIC NEPHROPATHY” (YALE UNIVERSITY, priority 2014, published 2017).
Several values for one entry are separate records, joined by “and”; a condition that tells them apart may be missing. Equal entries are not always repeated. Entries after “also recorded” stand apart in the source; their conditions may differ.

Tests used:
Sema3a^+ podocytes = experiment: Podocyte morphology assay (rhodamine-phalloidin staining, cell area morphometry); type: cell-based
Protocol: Sema3a^+ podocyte cell line was described previously (Reidy et al., Am J Pathol 2013;183(4):1156-1168). Sema3a^+ podocytes were exposed to RPMI 1640 medium+1%FBS, medium+0.1 μM xanthofulvin, medium+100 ng/ml rat recombinant Sema3a (Reidy et al., Development 2009;136(23):3979-3989) or medium+xanthofulvin+Sema3a for 16 h, fixed and stained with rhodamine-phalloidin. Images were acquired (Zeiss Axiovert); podocyte area (μm^2) was measured using Zeiss AxioVision software as described (Reidy et al., Am J Pathol 2013;183(4):1156-1168), n=71±4 cells/experimental condition from 3 independent experiments were measured.

[1] = tested on: Sema3a^+ gain-of-function diabetic mice; experiment: Sema3a inhibition study: xanthofulvin subcutaneous infusion in Sema3a^+ gain-of-function diabetic mice; type: in vivo, mouse
Protocol: Podocin-rtTA:tet-O-Sema3a mice, herein called Sema3a^+, generated previously (Reidy et al., Development 2009;136(23):3979-3989) were maintained in FVB genetic background for >10 generations. Diabetes was induced (low dose protocol, AMDCC.org) in 6-8 weeks old male Sema3a^+ mice by 5 daily i.p. streptozotocin (STZ) (50 mg/kg) . Diabetes (random blood glucose >300 mg/dl) was confirmed using glucose oxidase biosensor blood glucose meter (One-Touch-Ultra-2; LifeScan) one week after the last STZ injection. Diabetic Sema3a^+ (DM-Sema3a^+) (n=15) and non-diabetic Sema3a^+ (non-DM-Sema3a^+) (n=18) mice were fed doxycycline-containing diet (0.625mg/kg chow, Harlan-Teklad) or standard chow for 12-16 weeks. After 12-16 weeks of diabetes, 24 h urine was collected in metabolic cages, blood and kidneys were collected under anesthesia. For Sema3a inhibition studies, DM-Sema3a^+ mice were fed doxycycline-containing chow for 8 weeks, then Alzet osmotic pumps (Model 1004) containing xanthofulvin (0.5 mg/ml in PBS) (Ieda et al., Nat Med 2007;13(5):604-612) (n=4) or saline (n=2) were implanted subcutaneously, all mice were kept on doxycycline-containing chow for the following 4 weeks.
Urinary albumin was measured using mouse albumin ELISA (Bethyl Laboratories) and SDS-PAGE/Coomassie Blue staining as described (Reidy et al., Am J Pathol 2013;183(4):1156-1168). Plasma and 24h urine creatinine were measured by HPLC. Transmission electron microscopy (TEM) was performed using standard techniques. Glomerular area was measured using ImageJ-NIH (rsb.info.nih.gov/ij/) in 34±2.1 glomeruli/kidney from 4 mice/experimental condition. A renal pathologist (G.M.) examined PAS stained kidney specimens in blinded fashion and assigned a semiquantitative pathology score based on % area (0=none;1=1-25%;2=26-50%;3=51-75%;4=76-100%) with the following features: glomerular nodules, mesangiolysis, mesangial sclerosis and interstitial fibrosis. The percentage glomeruli/section containing mesangiolysis or nodules was calculated (Veron et al., J Am Soc Nephrol. 2014;25(8):1814-1824).

Sema3a = biological target: T1, Sema3a (Homo sapiens, UniProt Q14563); details: fungal and synthetic xanthofulvin, in vitro; cited from earlier work
T1 sequence (Q14563 21-771): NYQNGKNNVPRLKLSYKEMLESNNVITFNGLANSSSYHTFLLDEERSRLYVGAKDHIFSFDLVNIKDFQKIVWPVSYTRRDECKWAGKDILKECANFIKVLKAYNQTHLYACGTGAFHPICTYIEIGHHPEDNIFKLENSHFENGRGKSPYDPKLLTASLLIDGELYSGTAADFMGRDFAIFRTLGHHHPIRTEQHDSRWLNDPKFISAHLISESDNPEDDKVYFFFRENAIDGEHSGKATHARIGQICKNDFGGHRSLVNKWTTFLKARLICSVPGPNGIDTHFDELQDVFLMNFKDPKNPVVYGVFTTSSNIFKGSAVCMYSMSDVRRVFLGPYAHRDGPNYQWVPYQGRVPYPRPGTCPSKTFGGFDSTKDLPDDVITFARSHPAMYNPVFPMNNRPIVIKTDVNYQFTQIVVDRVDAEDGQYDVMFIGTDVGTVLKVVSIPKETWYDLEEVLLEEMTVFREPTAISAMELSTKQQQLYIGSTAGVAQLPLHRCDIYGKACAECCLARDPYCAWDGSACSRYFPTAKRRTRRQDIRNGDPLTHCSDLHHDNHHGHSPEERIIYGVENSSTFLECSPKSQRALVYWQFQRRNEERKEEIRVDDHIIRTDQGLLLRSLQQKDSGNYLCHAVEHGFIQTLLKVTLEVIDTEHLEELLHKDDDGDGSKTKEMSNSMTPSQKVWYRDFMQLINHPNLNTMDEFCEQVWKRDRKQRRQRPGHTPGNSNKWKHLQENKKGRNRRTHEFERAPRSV

[2] = purified fungal xanthofulvin, in vivo; cited from earlier work
MICAL1 = experiment: Podocyte MICAL1 knockdown by siRNA, immunoblot; type: cell-based, mouse; details: 200 pmol siRNA, 72 hours, cultured podocytes, densitometry
Protocol: Equal amount of protein from ≧4 kidney lysates/experimental condition were pooled and resolved by SDS-PAGE, immunoblotting was performed using standard technique with the following primary antibodies: WT1, podocin, nephrin, laminin, Sema3a (sc-28867; Santa Cruz), β3-integrin (sc-14009; Santa Cruz), β1-integrin (AB1952; EMD-Millipore), neuropilin-1 (Kolodkin et al., Cell 1997;90:753-762; Takahashi et al., Cell 1999;99(1):59-69), MMP-2 (MAB13434; EMD-Millipore), MMP-9 (AB19016; EMD-Millipore), plexinA1 (sc-25639; Santa Cruz), VEGFR-2 (2479; Cell Signaling), MICAL1 (14818-1-AP; Proteintech); actin (A2066; Sigma) or tubulin (Sigma) were used as loading controls. Signals were detected with appropriate HRP-conjugated secondary antibodies, visualized by chemiluminescence and quantified using ImageJ.
(§1) Podocyte MICAL-1 knockdown was induced using a mouse MICAL-1 siRNA oligonucleotide ([…], SEQ ID NO: 1) (Zhou et al., Mol Cell Biol 2011;31(17):3603-3615) (Dharmacon). Briefly, podocytes were transfected with 200 pmol MICAL-1 siRNA or scrambled siRNA using Oligofectamine (Invitrogen) and incubated for 72 hours. MICAL1 knockdown was confirmed by immunoblot. Podocytes with or without MICAL1 knockdown were exposed to mouse recombinant Sema3a (100 ng/ml) for 6 hours. Podocytes were fixed, permeabilized, stained with rhodamine-phalloidin, and their morphology was analyzed as described above.

podocytes = experiment: Podocyte MICAL1 knockdown morphology assay; type: cell-based; details: mouse recombinant Sema3a 100 ng/ml, 6 hours
Protocol: as §1

[3] = constant subcutaneous infusion ~1.8 μg/d for 30 days

Row | Molecule | Sema3a-induced podocyte F-actin collapse, shape change and contraction (Sema3a^+ podocytes; 0.1 μM xanthofulvin, 100 ng/ml rat recombinant Sema3a, synthetic xanthofulvin) | deleterious effects in cultured podocytes (Sema3a^+ podocytes; cultured podocytes) | GBM thickness (TEM morphometry) [1, 3] | body weight [1, 3] | creatinine clearance (renal insufficiency) [1, 3] | diabetic glomerulosclerosis phenotype by histology and TEM [1, 3] | foot process effacement / FP width (TEM morphometry) [1, 3] | plasma albumin (hypoalbuminemia) [1, 3] | side effect [1, 3] | albuminuria ([1]; constant subcutaneous infusion ~1.8 μg/d for 30 days (weeks 8-12 after diabetes onset)) | Sema3a-induced growth cone collapse (Sema3a) | functional recovery of injured spinal cord [2] | decrease of MICAL1 expression (knockdown) (MICAL1) | Sema3a-induced podocyte contraction and F-actin collapse after MICAL1 knockdown (podocytes)
1 | CC(=O)c1c(C)c(/C(O)=C2\COc3cc(O)c(O)c(C(=O)O)c3C2=O)cc2c(=O)c3c(C(=O)O)c(O)c(O)cc3oc12 [xanthofulvin] | prevented Sema3a-induced podocyte F-actin collapse, shape change and contraction; also recorded: abrogates Sema3a-induced podocyte contraction in vitro; also recorded: abrogates Sema3a-induced podocyte F-actin collapse in vitro; also recorded: abrogates Sema3a-induced podocyte F-actin collapse, shape change and contraction | no deleterious effects in cultured podocytes | significantly decreased GBM thickness; also recorded: quite normal GBM | stable body weight | abrogated renal insufficiency; also recorded: normalized | markedly attenuates the diabetic glomerulosclerosis phenotype; also recorded: abrogate the diabetic nodular glomerulosclerosis; also recorded: abrogated; also recorded: mild mesangial hypercellularity and extracellular matrix expansion | significantly decreased; also recorded: focal FPE | corrects hypoalbuminemia; also recorded: normalized | no apparent side effect | significantly decreases albuminuria; also recorded: decreased albuminuria; also recorded: improved albuminuria | prevent Sema3a-induced growth cone collapse in vitro | promotes functional recovery of injured spinal cord | – | –
2 | siRNA: mouse MICAL-1 siRNA oligonucleotide (CAGGUGCCAUGACUAAGUAUU, SEQ ID NO: 1) (listed as RNA, chemistry not given here; listed as Mus musculus) | – | – | – | – | – | – | – | – | – | – | – | – | 73±2.6% and ~75% | not susceptible to Sema3a-induced contraction; also recorded: prevents Sema3a-induced podocyte contraction and F-actin collapse
